Experimental data: patent US10662204B2 (PFIZER INC., priority 2018, dated 2020)

What was measured:
[1] = target: KRAS G12C (Homo sapiens, UniProt P01116, G12C); test: Cell Activity Assay: accumulation of GDP-bound KRAS G12C in MIAPaCa-2 cells (Raf-1 RBD capture, MSD readout); assay type: cell-based; design: endogenous in cells; host or cells: MIAPaCa-2; details: 6 hours, assay limit is 30.00
Procedure, shortened: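 IC50 came from a 4-parameter fit of Ras signal normalized between DMSO and full-inhibition controls. Readout: lysate GTP-Ras bound to immobilized Raf-1 RBD, quantified with pan-Ras antibody and MSD electrochemiluminescence. Lysates derived from MIAPaCa-2 cells treated 6 h with serially diluted compound, 0.3% DMSO.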

[2] = target: T1, GDP-loaded KRAS (1-169) G12C, C51S, C80L, C118S (Homo sapiens, UniProt P01116, C118S/C51S/C80L/G12C); test: Mass Spectrometry Reactivity Assay (MSRA): covalent adduct of compound and KRAS G12C, Percent Modification; assay type: binding; details: for MSRA (% modification) 10 μM 0.50 hr / MSRA (% modification) 10 μM 0.25 hr: 10 μM compound
T1 construct: GDP-loaded KRAS (1-169) G12C, C51S, C80L, C118S
Procedure, shortened: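 Covalent labelling is measured by intact mass: deconvoluted modified and unmodified peak intensities yield percent modification. Compound, usually 5 μM or 10 μM final, reacts at room temperature with 5 μM GDP-bound KRAS G12C (1-169, C51S/C80L/C118S) in Hepes pH 7.5/NaCl/glycerol, sampled at 1, 15, 30, 60 min.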

| Structure (SMILES) | IC50 [1] | MSRA (% modification) 5.0 μM 0.25 hr ([2]; 5.0 μM compound) | MSRA (% modification) 10 μM 0.50 hr [2] | MSRA (% modification) 10 μM 0.25 hr [2] | MSRA (% modification) 5.0 μM 0.017 hr ([2]; 5.0 μM compound, 0.017 hr) |
| --- | --- | --- | --- | --- | --- |
| C=CC(=O)N1CCN(c2nc(OC[C@@H]3CCCN3C)nc3c(Oc4c(C)c(F)cc5[nH]ncc45)nccc23)CC1 [Example 04I, 1-[4-(8-[(6-fluoro-5-methyl-1H-indazol-4-yl)oxy]-2-{[(2S)-1-methyl-pyrrolidin-2-yl]methoxy}pyrido [3,4-d]pyrimidin-4-yl)piperazin-1-yl]prop-2-en-1-one] | 0.375 µM | 55% |  |  |  |
| C=CC(=O)N1CCN(c2nc(OC[C@H]3CCCN3C(C)=O)nc3c(Oc4c(Cl)c(F)cc5[nH]ncc45)nccc23)CC1 [Example 04J, 1-[4-(2-{[(2R)-1-acetylpyrrolidin-2-yl]methoxy}-8-[(5-chloro-6-fluoro-1H-indazol-4-yl)oxy]pyrido[3,4-d]pyrimidin-4-yl)piperazin-1-yl]prop-2-en-1-one] | 0.989 µM | 64% |  |  |  |
| C=CC(=O)N1CCN(c2ncnc3c(Nc4c(C)ccc5[nH]ncc45)nccc23)CC1 [Example 05, 1-(4-{8-[(5-methyl-1H-indazol-4-yl)amino]pyrido[3,4-d]pyrimidin-4-yl}piperazin-1-yl)prop-2-en-1-one] | 29.3 µM |  | 5% |  |  |
| C=CC(=O)N1CCN(c2ncnc3c(Oc4c(Cl)ccc5[nH]ncc45)nc(C)cc23)CC1 [Example 05A, 1-(4-{8-[(5-chloro-1H-indazol-4-yl)oxy]-6-methylpyrido[3,4-d]pyrimidin-4-yl}piperazin-1-yl)prop-2-en-1-one] | 8.41 µM |  | 12% |  |  |
| C=CC(=O)N1CCN(c2nc(N3CC(N(C)C)C3)nc3c(Oc4c(C)ccc5[nH]ncc45)nc(C)cc23)[C@@H](C)C1 [Example 05B, 1-[(3S)-4-{2-[3-(dimethylamino)azetidin-1-yl]-6-methyl-8-[(5-methyl-1H-indazol-4-yl)oxy]pyrido[3,4-d]pyrimidin-4-yl}-3-methylpiperazin-1-yl]prop-2-en-1-one] | 4.03 µM |  | 15% |  |  |
| C=CC(=O)N1CCN(c2ncnc3c(Oc4c(Cl)c(C)cc5[nH]ncc45)nc(C)cc23)CC1 [Example 05C, 1-(4-{8-[(5-chloro-6-methyl-1H-indazol-4-yl)oxy]-6-methylpyrido[3,4-d]pyrimidin-4-yl}piperazin-1-yl)prop-2-en-1-one] | 1.29 µM |  | 61% |  |  |
| C=CC(=O)N1CCN(c2nc(OCCN(C)C)nc3c(Oc4c(Cl)c(C)cc5[nH]ncc45)nccc23)CC1 [Example 05E, 1-(4-{8-[(5-chloro-6-methyl-1H-indazol-4-yl)oxy]-2-[2-(dimethylamino)ethoxy]pyrido[3,4-d]pyrimidin-4-yl}piperazin-1-yl)prop-2-en-1-one] | 0.559 µM |  | 76% | 72% |  |
| C=CC(=O)N1CCN(c2nc(N(C)CCC(=O)N(C)C)nc3c(Oc4c(C)ccc5[nH]ncc45)cccc23)CC1 [Example 05F, N^3-{4-(4-acryloylpiperazin-1-yl)-8-[(5-methyl-1H-indazol-4-yl)oxy]quinazolin-2-yl}-N,N,N^3-trimethyl-β-alaninamide] | 28.5 µM |  | 22% |  |  |
| C=CC(=O)N1CCN(c2nc(N3CC(N(C)C)C3)nc3c(Oc4c(Cl)c(F)cc5[nH]ncc45)nc(Cl)cc23)CC1 [Example 05G, 1-(4-{6-chloro-8-[(5-chloro-6-fluoro-1H-indazol-4-yl)oxy]-2-[3-(dimethylamino)azetidin-1-yl]pyrido[3,4-d]pyrimidin-4-yl}piperazin-1-yl)prop-2-en-1-one] | 0.164 µM | 80% | 82% | 81% |  |
| C=CC(=O)N1CCN(c2nc(OC[C@@H]3CCOC3)nc3c(Oc4c(Cl)c(F)cc5[nH]ncc45)nccc23)CC1 [Example 05H, 1-(4-{8-[(5-chloro-6-fluoro-1H-indazol-4-yl)oxy]-2-[(3R)-tetrahydrofuran-3-ylmethoxy]pyrido[3,4-d]pyrimidin-4-yl}piperazin-1-yl)prop-2-en-1-one] | 0.414 µM | 54% |  | 68% |  |
| C=CC(=O)N1CCN(c2nc(Oc3cccnc3C(C)C)nc3c(Oc4c(Cl)c(F)cc5[nH]ncc45)nccc23)CC1 [Example 05I, 1-[4-(8-[(5-chloro-6-fluoro-1H-indazol-4-yl)oxy]-2-{[2-(propan-2-yl)pyridin-3-yl]oxy}pyrido [3,4-d]pyrimidin-4-yl)piperazin-1-yl]prop-2-en-1-one] | 0.074 µM | 70% |  |  |  |
| C=CC(=O)N1CCN(c2nc(OCC3CCN(C(C)=O)C3)nc3c(Oc4c(Cl)c(F)cc5[nH]ncc45)nccc23)CC1 (stereo not shown) [Example 05J, 1-(4-{2-[(1-acetylpyrrolidin-3-yl)methoxy]-8-[(5-chloro-6-fluoro-1H-indazol-4-yl)oxy]pyrido[3,4-d]pyrimidin-4-yl}piperazin-1-yl)prop-2-en-1-one] | 1.07 µM | 81% |  |  |  |
| C=CC(=O)N1CCN(c2ncnc3c(Oc4cc(O)cc5ccccc45)nccc23)CC1 [Example 06, 1-(4-{8-[(3-Hydroxynaphthalen-1-yl)oxy]pyrido[3,4-d]pyrimidin-4-yl}piperazin-1-yl)prop-2-en-1-one] | 29.7 µM |  | 20% |  |  |

Next, values leading:

| IC50 [1] | MSRA (% modification) 5.0 μM 0.25 hr ([2]; 5.0 μM compound) | MSRA (% modification) 10 μM 0.50 hr [2] | MSRA (% modification) 10 μM 0.25 hr [2] | MSRA (% modification) 5.0 μM 0.017 hr ([2]; 5.0 μM compound, 0.017 hr) | Structure (SMILES) |
| --- | --- | --- | --- | --- | --- |
| 6.75 µM |  | 26% |  |  | C=CC(=O)N1CCN(c2ncnc3c(Oc4c(Cl)ccc5[nH]ncc45)nccc23)CC1 [Example 06A, 1-(4-{8-[(5-chloro-1H-indazol-4-yl)oxy]pyrido[3,4-d]pyrimidin-4-yl}piperazin-1-yl)prop-2-en-1-one] |
| > 30 µM |  | 9% |  |  | C=CC(=O)N1C[C@H](C)N(c2nc(N3CC(N(C)C)C3)nc3c(Oc4c(C)ccc5[nH]ncc45)nc(C)cc23)C[C@H]1C [Example 06B, 1-[(2R,5S)-4-{2-[3-(Dimethylamino)azetidin-1-yl]-6-methyl-8-[(5-methyl-1H-indazol-4-yl)oxy]pyrido[3,4-d]pyrimidin-4-yl}-2,5-dimethylpiperazin-1-yl]prop-2-en-1-one] |
| 1.62 µM |  | 53% |  |  | C=CC(=O)N1CCN(c2ncnc3c(Oc4c(Cl)c(C)cc5[nH]ncc45)cccc23)CC1 [Example 06C, 1-(4-{8-[(5-chloro-6-methyl-1H-indazol-4-yl)oxy]quinazolin-4-yl}piperazin-1-yl)prop-2-en-1-one] |
| 0.585 µM | 35% | 75% | 70% |  | C=CC(=O)N1CCN(c2nc(OC[C@H]3CCCN3C)nc3c(Oc4c(C)ccc5[nH]ncc45)cccc23)CC1 [Example 06E, 1-[4-(8-[(5-methyl-1H-indazol-4-yl)oxy]-2-{[(2R)-1-methylpyrrolidin-2-yl]methoxy}quinazolin-4-yl)piperazin-1-yl]prop-2-en-1-one] |
| 3.24 µM |  | 46% |  |  | C=CC(=O)N1CCN(c2nc(NCCC(=O)N(C)C)nc3c(Oc4c(C)ccc5[nH]ncc45)cccc23)CC1 [Example 06F, N^3-{4-(4-acryloylpiperazin-1-yl)-8-[(5-methyl-1H-indazol-4-yl)oxy]quinazolin-2-yl}-N,N-dimethyl-β-alaninamide] |
| 0.064 µM | 52% |  | 82% | 23% | C=CC(=O)N1CCN(c2nc(OC[C@@H]3CCCN3C)nc3c(Oc4c(Cl)c(C)cc5[nH]ncc45)nc(Cl)cc23)CC1 [Example 06G, 1-[4-(6-chloro-8-[(5-chloro-6-methyl-1H-indazol-4-yl)oxy]-2-{[(2S)-1-methylpyrrolidin-2-yl]methoxy}pyrido[3,4-d]pyrimidin-4-yl)piperazin-1-yl]prop-2-en-1-one] |
| 0.611 µM | 48% |  | 60% |  | C=CC(=O)N1CCN(c2nc(OC[C@H]3CCCO3)nc3c(Oc4c(Cl)c(F)cc5[nH]ncc45)nccc23)CC1 [Example 06H, 1-(4-{8-[(5-chloro-6-fluoro-1H-indazol-4-yl)oxy]-2-[(2R)-tetrahydrofuran-2-ylmethoxy]pyrido[3,4-d]pyrimidin-4-yl}piperazin-1-yl)prop-2-en-1-one] |
| 0.02 µM | 74% |  |  |  | C=CC(=O)N1CCN(c2nc(Oc3cccnc3C3CC3)nc3c(Oc4c(Cl)c(F)cc5[nH]ncc45)nccc23)CC1 [Example 06I, 1-(4-{8-[(5-chloro-6-fluoro-1H-indazol-4-yl)oxy]-2-[(2-cyclo-propyl-pyridin-3-yl)oxy]pyrido [3,4-d]pyrimidin-4-yl}piperazin-1-yl)prop-2-en-1-one] |
| 0.638 µM | 33% |  |  |  | C=CC(=O)N1CCN(c2nc(N3C[C@@](C)(O)[C@@H]3C)nc3c(Oc4c(Cl)c(F)cc5[nH]ncc45)nccc23)CC1 [Example 06J, 1-(4-{8-[(5-chloro-6-fluoro-1H-indazol-4-yl)oxy]-2-[(2S,3R)-3-hydroxy-2,3-dimethylazetidin-1-yl]pyrido[3,4-d]pyrimidin-4-yl}piperazin-1-yl)prop-2-en-1-one] |
| 7.15 µM |  | 16% |  |  | C=CC(=O)N1CCN(c2ncnc3c(Oc4c(CC)ccc5[nH]ncc45)nccc23)CC1 [Example 07A, 1-(4-{8-[(5-ethyl-1H-indazol-4-yl)oxy]pyrido[3,4-d]pyrimidin-4-yl}piperazin-1-yl)prop-2-en-1-one] |
